From PMC9558423 (Molecular nutrition & food research, 2020)
Where two headings read alike, the source gives them in different places.

What was measured:
[1] = for Cmax (nmol excreted) / Tmax: urine; for Cmax (nmol excreted): mean ± SD; for Tmax: female, Sprague Dawley, rat, po; for Qualitative Tmax (urine collection with greatest excretion): 12h urine collections, np = no peak; for Time of maximal urinary excretion after dosing: as stated in text/figure legend, doses not separated
[2] = for Plasma AUC: High dose (1000 mg/kg bw), plasma 0–48h, trapezoidal; for Cmax / AUC / Tmax: plasma
[3] = female, Sprague Dawley, rat, po, 350 mg/kg
[4] = female, Sprague Dawley, rat, po, 1000 mg/kg

Compound | Cmax (nmol excreted) ([1]; High dose (1000 mg/kg bw)) | Cmax (nmol excreted) ([1]; Low dose (75 mg/kg bw)) | Cmax (nmol excreted) ([1]; Medium dose (350 mg/kg bw)) | Tmax ([1]; 350 mg/kg) [h] | Tmax ([1]; 1000 mg/kg) [h] | Qualitative Tmax (urine collection with greatest excretion) ([1]; High dose (1000 mg/kg bw)) | Qualitative Tmax (urine collection with greatest excretion) ([1]; Low dose (75 mg/kg bw)) | Qualitative Tmax (urine collection with greatest excretion) ([1]; Medium dose (350 mg/kg bw)) | also measured
O=c1c(O)c(-c2ccc(O)c(O)c2)oc2cc(O)cc(O)c12 [Quercetin, quercetin] | 11.5 ± 4.0 nmol excreted | 3.88 ± 1.46 nmol excreted | 10.1 ± 7.4 nmol excreted | 0 to 12 | 0 to 12 | – | – | – | Tmax ([1]; 75 mg/kg): 0 to 12 h
COc1cc(/C=C/C(=O)O)ccc1O [Ferulic acid, ferulic acid] | – | np | 11.7 ± 3.0 nmol excreted | – | – | 0 to 24 h | np | 0 to 24 h | Plasma AUC ([2]; mean ± SD): trace
COc1cc(C(=O)O)cc(OC)c1O [Syringic acid, syringic acid] | 35.1 ± 6.0 nmol excreted | 1.03 ± 0.30 nmol excreted | 12.2 ± 3.0 nmol excreted | 0 to 12 | 0 to 12 | – | – | – | Plasma AUC ([2]; mean ± SD): trace; Time of maximal urinary excretion after dosing [1]: ≤ 12 h; Tmax ([1]; 75 mg/kg): 0 to 12 h
COc1cc(-c2[o+]c3cc(O)cc(O)c3cc2OC2OC(CO)C(O)C(O)C2O)cc(O)c1O (stereo not drawn) [Petunidin Galactoside, petunidin-3-O-galactoside] | 1.73 ± 0.38 nmol excreted | np | 0.49 ± 0.23 nmol excreted | – | – | 0 to 12 h | np | 0 to 12 h | –
OC[C@H]1O[C@@H](Oc2cc3c(O)cc(O)cc3[o+]c2-c2cc(O)c(O)c(O)c2)[C@H](O)[C@@H](O)[C@@H]1O [Delphinidin Glucoside, delphindin-3-O-glucoside] | 0.94 ± 0.22 nmol excreted | np | 0.81 ± 0.14 nmol excreted | – | – | 0 to 24 h | np | 0 to 24 h | –
O=C(O)Cc1ccc(O)cc1 [4-OH-PAA, 4-hydroxyphenylacetic acid] | 0.51 ± 0.16 nmol excreted | 0.30 ± 0.12 nmol excreted | 0.84 ± 0.38 nmol excreted | 0 to 24 | 0 to 24 | – | – | – | Tmax ([1]; 75 mg/kg): 0 to 24 h
O=C(O)[C@H]1O[C@@H](Oc2c(-c3ccc(O)c(O)c3)oc3cc(O)cc(O)c3c2=O)[C@H](O)[C@@H](O)[C@@H]1O [Quercetin glucuronide, quercetin-3-O-glucuronide] | 1.83 ± 0.28 nmol excreted | np | 0.72 ± 0.14 nmol excreted | 0 to 12 | 0 to 12 | – | np | – | Qualitative Tmax (blood collection with greatest plasma level) ([2]; Low dose (75 mg/kg bw), blood every 6h, np = no peak): np; Cmax ([2]; Low dose (75 mg/kg bw), mean ± SD): np; AUC ([2]; female, Sprague Dawley, rat, po, 75 mg/kg): 0.32 ± 0.01 µM·h; AUC [2, 3]: 0.34 ± 0.05 µM·h; Cmax [2, 3]: 8 ± 2 nM; Tmax [2, 3]: 6 h; AUC [2, 4]: 0.57 ± 0.14 µM·h; Cmax [2, 4]: 23 ± 5 nM; Tmax [2, 4]: 6 h
delphinidin sulfate | 20.2 ± 2.4 nmol excreted | np | 18.2 ± 2.4 nmol excreted | – | – | 0 to 24 h | np | 0 to 24 h | –
OC[C@H]1O[C@@H](Oc2cc3c(O)cc(O)cc3[o+]c2-c2cc(O)c(O)c(O)c2)[C@H](O)[C@@H](O)[C@H]1O [Delphinidin Galactoside] | 1.74 ± 0.22 nmol excreted | np | 0.98 ± 0.20 nmol excreted | – | – | 0 to 12 h | np | 0 to 12 h | –
O=C(O)/C=C/c1ccc(O)c(O)c1 [Caffeic acid, caffeic acid] | 3.97 ± 1.38 nmol excreted | np | 3.18 ± 1.64 nmol excreted | 0 to 12 | 0 to 12 | – | np | – | –
OC[C@H]1O[C@@H](Oc2cc3c(O)cc(O)cc3[o+]c2-c2ccc(O)c(O)c2)[C@H](O)[C@@H](O)[C@@H]1O [Cyanidin Glucoside, cyanidin-3-O-glucoside] | 0.22 ± 0.04 nmol excreted | np | 0.11 ± 0.05 nmol excreted | – | – | 0 to 12 h | np | 0 to 24 h | –
COc1cc(-c2[o+]c3cc(O)cc(O)c3cc2O[C@@H]2O[C@H](CO)[C@H](O)[C@H](O)[C@H]2O)cc(OC)c1O [Malvidin Galactoside, malvidin-3-O-galactoside] | 14.2 ± 1.3 nmol excreted | np | 7.36 ± 2.00 nmol excreted | – | – | 0 to 12 h | np | 0 to 12 h | Time of maximal urinary excretion after dosing [1]: ≤ 12 h
Caffeic acid sulfate | 9.74 ± 0.78 nmol excreted | np | 6.43 ± 4.57 nmol excreted | – | – | 0 to 12 h | np | 0 to 12 h | –
COc1cc(-c2[o+]c3cc(O)cc(O)c3cc2O[C@@H]2O[C@H](CO)[C@@H](O)[C@H](O)[C@H]2O)cc(O)c1O [Petunidin Glucoside, petunidin-3-O-glucoside] | 0.94 ± 0.19 nmol excreted | np | 0.37 ± 0.14 nmol excreted | – | – | 0 to 12 h | np | 0 to 12 h | –
COc1cc(-c2[o+]c3cc(O)cc(O)c3cc2O[C@@H]2O[C@H](CO)[C@@H](O)[C@H](O)[C@H]2O)cc(OC)c1O [Malvidin Glucoside, malvidin-3-O-glucoside] | 10.7 ± 0.9 nmol excreted | np | 6.57 ± 0.57 nmol excreted | – | – | 0 to 12 h | np | 0 to 12 h | –
petunidin glucuronide | 3.49 ± 0.46 nmol excreted | np | 0.92 ± 0.24 nmol excreted | – | – | 0 to 12 h | np | 0 to 12 h | –
O=C(O)CNC(=O)c1cccc(O)c1 [3-OH-hippuric acid, 3-hydroxyhippuric acid] | 26.3 ± 7.6 nmol excreted | np | 31.8 ± 8.1 nmol excreted | 12 to 24 | 12 to 24 | – | np | – | –
O=C(O[C@@H]1O[C@H](C(=O)O)[C@@H](O)[C@H](O)[C@H]1O)c1ccccc1 [BzA glucuronide] | 0.76 ± 0.17 nmol excreted | np | 0.85 ± 0.17 nmol excreted | – | – | 12 to 24 h | np | 12 to 24 h | –
COc1ccc(CC(=O)O)cc1O [3-OH-4-OMe-PAA] | np | np | np | – | – | np | np | np | –
OC[C@H]1O[C@@H](Oc2cc3c(O)cc(O)cc3[o+]c2-c2ccc(O)c(O)c2)[C@H](O)[C@@H](O)[C@H]1O [Cyanidin Galactoside] | 0.46 ± 0.09 nmol excreted | np | 0.19 ± 0.04 nmol excreted | – | – | 0 to 12 h | np | 0 to 12 h | –
O=C(/C=C/c1ccc(O)c(O)c1)O[C@@H]1C[C@](O)(C(=O)O)C[C@@H](O)[C@H]1O [Chlorogenic acid, chlorogenic acid] | 238 ± 67 nmol excreted | np | 66.1 ± 23.4 nmol excreted | 0 to 24 | 0 to 12 | – | np | – | –
COc1ccc(CCC(=O)O)cc1O [3-OH-4-OMe-PPA, 3-hydroxy-4-methoxyphenylpropionic acid] | 2.48 ± 2.69 nmol excreted | 0.82 ± 0.58 nmol excreted | 2.69 ± 1.83 nmol excreted | – | – | 12 to 24 h | 0 to 12 h | 12 to 24 h | –
